Data published in ChEMBL document CHEMBL3046389, “Synthesis and biological evaluation of novel hydroquinone dimethyl ethers as potential anticancer and antimicrobial agents” (2013).
≈ marks a conversion by molar mass, not a printed value.

Columns and labels:
Format in all cases: functional
[1] = system: HCT-116; test: Growth inhibition of Homo sapiens (human) HCT116 cells at 10 uM after 48 hr by SRB assay; details: HCT-116, 48 h, read-out: GI
[2] = system: HCC 2998; test: Growth inhibition of Homo sapiens (human) HCC2998 cells at 10 uM after 48 hr by SRB assay; details: HCC 2998, 48 h, read-out: GI
[3] = system: T47D; test: Growth inhibition of Homo sapiens (human) T47D cells at 10 uM after 48 hr by SRB assay; details: read-out: GI
[4] = system: Hs-578T; test: Growth inhibition of Homo sapiens (human) Hs 578T cells at 10 uM after 48 hr by SRB assay; details: read-out: GI
[5] = system: TK-10; test: Growth inhibition of Homo sapiens (human) TK10 cells at 10 uM after 48 hr by SRB assay; details: TK-10, 48 h, read-out: GI
[6] = system: U-251; test: Anticancer activity against Homo sapiens (human) U251 cells after 48 hr by SRB assay; details: U-251, 48 h; for CC50: read-out: LC50 (the source's name)
[7] = system: KM12; test: Anticancer activity against Homo sapiens (human) KM12 cells after 48 hr by SRB assay; details: KM12, 48 h; for CC50: read-out: LC50 (the source's name)
[8] = system: HCC 2998; test: Anticancer activity against Homo sapiens (human) HCC2998 cells after 48 hr by SRB assay; details: HCC 2998, 48 h; for CC50: read-out: LC50 (the source's name)
[9] = system: COLO 205; test: Anticancer activity against Homo sapiens (human) COLO205 cells after 48 hr by SRB assay; details: COLO 205, 48 h; for CC50: read-out: LC50 (the source's name)
[10] = system: Staphylococcus aureus; test: Antimicrobial activity against Staphylococcus aureus DSM 1104 after 48 hr by two-fold serial broth dilution method; details: DSM 1104, 48 h
[11] = system: MDA-MB-468; test: Anticancer activity against Homo sapiens (human) MDA-MB-468 cells after 48 hr by SRB assay; details: MDA-MB-468, 48 h; for CC50: read-out: LC50 (the source's name)
[12] = system: T47D; test: Anticancer activity against Homo sapiens (human) T47D cells after 48 hr by SRB assay; details: for CC50: read-out: LC50 (the source's name)
[13] = system: BT-549; test: Anticancer activity against Homo sapiens (human) BT549 cells after 48 hr by SRB assay; details: BT-549, 48 h; for CC50: read-out: LC50 (the source's name)
[14] = system: MDA-MB-231; test: Anticancer activity against Homo sapiens (human) MDA-MB-231/ATCC cells after 48 hr by SRB assay; details: MDA-MB-231, 48 h; for CC50: read-out: LC50 (the source's name)
[15] = system: DU-145; test: Anticancer activity against Homo sapiens (human) DU145 cells after 48 hr by SRB assay; details: DU-145, 48 h
[16] = system: PC-3; test: Anticancer activity against Homo sapiens (human) PC3 cells after 48 hr by SRB assay; details: PC-3, 48 h; for CC50: read-out: LC50 (the source's name)
[17] = system: UO-31; test: Anticancer activity against Homo sapiens (human) UO31 cells after 48 hr by SRB assay; details: UO-31, 48 h
[18] = system: CAKI-1; test: Anticancer activity against Homo sapiens (human) CAKI-1 cells after 48 hr by SRB assay; details: CAKI-1, 48 h; for CC50: read-out: LC50 (the source's name)
[19] = system: 786-0; test: Growth inhibition of Homo sapiens (human) 786-0 cells at 10 uM after 48 hr by SRB assay; details: 786-0, 48 h, read-out: GI
[20] = system: OVCAR-8; test: Growth inhibition of Homo sapiens (human) OVCAR8 cells at 10 uM after 48 hr by SRB assay; details: OVCAR-8, 48 h, read-out: GI
[21] = system: UACC-62; test: Anticancer activity against Homo sapiens (human) UACC62 cells after 48 hr by SRB assay; details: UACC-62, 48 h
[22] = system: SK-MEL-5; test: Anticancer activity against Homo sapiens (human) SK-MEL-5 cells after 48 hr by SRB assay; details: SK-MEL-5, 48 h
[23] = system: Bacillus subtilis; test: Antimicrobial activity against Bacillus subtilis ATCC 6633 after 48 hr by two-fold serial broth dilution method; details: ATCC 6633, 48 h
[24] = system: OVCAR-3; test: Growth inhibition of Homo sapiens (human) OVCAR3 cells at 10 uM after 48 hr by SRB assay; details: OVCAR-3, 48 h, read-out: GI
[25] = system: Malme-3M; test: Growth inhibition of Homo sapiens (human) MALME-3M cells at 10 uM after 48 hr by SRB assay; details: read-out: GI
[26] = system: U-251; test: Growth inhibition of Homo sapiens (human) U251 cells at 10 uM after 48 hr by SRB assay; details: U-251, 48 h, read-out: GI
[27] = system: SNB-75; test: Growth inhibition of Homo sapiens (human) SNB75 cells at 10 uM after 48 hr by SRB assay; details: SNB-75, 48 h, read-out: GI
[28] = system: SF-295; test: Growth inhibition of Homo sapiens (human) SF295 cells at 10 uM after 48 hr by SRB assay; details: SF-295, 48 h, read-out: GI
[29] = system: NCI-H23; test: Growth inhibition of Homo sapiens (human) NCI-H23 cells at 10 uM after 48 hr by SRB assay; details: NCI-H23, 48 h, read-out: GI
[30] = system: UACC-62; test: Growth inhibition of Homo sapiens (human) UACC62 cells at 10 uM after 48 hr by SRB assay; details: UACC-62, 48 h, read-out: GI
[31] = system: MDA-MB-435; test: Growth inhibition of Homo sapiens (human) MDA-MB-435 cells at 10 uM after 48 hr by SRB assay; details: MDA-MB-435, 48 h, read-out: GI
[32] = system: SF-539; test: Growth inhibition of Homo sapiens (human) SF539 cells at 10 uM after 48 hr by SRB assay; details: SF-539, 48 h, read-out: GI
[33] = system: KM12; test: Growth inhibition of Homo sapiens (human) KM12 cells at 10 uM after 48 hr by SRB assay; details: KM12, 48 h, read-out: GI
[34] = system: HCT-15; test: Growth inhibition of Homo sapiens (human) HCT15 cells at 10 uM after 48 hr by SRB assay; details: HCT-15, 48 h, read-out: GI

COc1ccc(OC)c(/C=C/c2nnc(Nc3ccc(Cl)cc3)o2)c1
inhibition of growth at 10 µM [1]: 78.1%
inhibition of growth at 10 µM [2]: 44.6%
inhibition of growth at 10 µM [3]: 105%
inhibition of growth at 10 µM [4]: 93.1%
inhibition of growth at 10 µM [5]: 60.9%
GI50 [6]: 3.81 µM
TGI [6]: 14.3 µM
CC50 [6]: 47.6 µM
GI50 [7]: 17.4 µM
TGI [7]: > 100 µM
CC50 [7]: > 100 µM
GI50 [8]: > 100 µM
TGI [8]: > 100 µM
CC50 [8]: > 100 µM
GI50 [9]: 16.6 µM
TGI [9]: > 100 µM
CC50 [9]: > 100 µM
MBC [10]: 50 µg/mL (≈ 140 µM)
MIC [10]: 50 µg/mL (≈ 140 µM)
GI50 [11]: 16.4 µM
TGI [11]: > 100 µM
CC50 [11]: > 100 µM
GI50 [12]: 2.54 µM
TGI [12]: > 100 µM
CC50 [12]: > 100 µM
TGI [13]: > 100 µM
CC50 [13]: > 100 µM
GI50 [14]: 5.23 µM
TGI [14]: 53.1 µM
CC50 [14]: > 100 µM
GI50 [15]: 11.4 µM
TGI [15]: 36.9 µM
CC50 ([15]; read-out: LC50 (the source's name)): > 100 µM
GI50 [16]: 13.3 µM
TGI [16]: 76 µM
CC50 [16]: > 100 µM
GI50 [17]: 3.13 µM
LC50 (50% lethal concentration) [17]: 78 µM
TGI [17]: 12.6 µM
GI50 [18]: 6.02 µM
TGI [18]: > 100 µM
CC50 [18]: > 100 µM
inhibition of growth at 10 µM [19]: 72.1%
inhibition of growth at 10 µM [20]: 33.3%
GI50 [21]: 16.2 µM
LC50 [21]: > 100 µM
TGI [21]: > 100 µM
GI50 [22]: 7.17 µM
LC50 [22]: > 100 µM
TGI [22]: > 100 µM
MBC [23]: 100 µg/mL (≈ 279 µM)
MIC [23]: 100 µg/mL (≈ 279 µM)
inhibition of growth at 10 µM [24]: 67.9%
inhibition of growth at 10 µM [25]: 58.5%
inhibition of growth at 10 µM [26]: 58.2%
inhibition of growth at 10 µM [27]: 84.2%
inhibition of growth at 10 µM [28]: 53.1%

COc1ccc(OC)c(/C=C/C(=O)N/N=C/c2ccccc2)c1
inhibition of growth at 10 µM [1]: 85.8%
inhibition of growth at 10 µM [2]: 33.6%
inhibition of growth at 10 µM [3]: 60.3%
inhibition of growth at 10 µM [4]: 33.5%
inhibition of growth at 10 µM [5]: 43.3%
GI50 [6]: 3.68 µM
TGI [6]: > 100 µM
CC50 [6]: > 100 µM
GI50 [7]: 0.834 µM
TGI [7]: 3.75 µM
CC50 [7]: 29.4 µM
GI50 [8]: 2.35 µM
TGI [8]: 21 µM
CC50 [8]: 94.5 µM
GI50 [9]: 4.8 µM
TGI [9]: 35.1 µM
CC50 [9]: > 100 µM
inhibition of growth at 10 µM [29]: 34.9%
MBC [10]: 100 µg/mL (≈ 322 µM)
MIC [10]: 100 µg/mL (≈ 322 µM)
GI50 [11]: 1.96 µM
TGI [11]: 6.47 µM
CC50 [11]: 61.6 µM
GI50 [12]: 4.86 µM
TGI [12]: > 100 µM
CC50 [12]: > 100 µM
GI50 [13]: 4.05 µM
TGI [13]: 90.4 µM
CC50 [13]: > 100 µM
GI50 [14]: 7.24 µM
TGI [14]: > 100 µM
CC50 [14]: > 100 µM
GI50 [16]: 5.86 µM
TGI [16]: 52.1 µM
CC50 [16]: > 100 µM
GI50 [17]: 5.9 µM
LC50 (50% lethal concentration) [17]: > 100 µM
TGI [17]: 85.5 µM
GI50 [18]: 0.443 µM
TGI [18]: 6.66 µM
CC50 [18]: > 100 µM
inhibition of growth at 10 µM [19]: 45.7%
inhibition of growth at 10 µM [20]: 45.2%
GI50 [21]: 3.55 µM
LC50 [21]: > 100 µM
TGI [21]: 75.8 µM
GI50 [22]: 2.94 µM
LC50 [22]: > 100 µM
TGI [22]: 14.6 µM
MBC [23]: 100 µg/mL (≈ 322 µM)
MIC [23]: 50 µg/mL (≈ 161 µM)
inhibition of growth at 10 µM [24]: 94%
inhibition of growth at 10 µM [30]: 39%
inhibition of growth at 10 µM [31]: 108%
inhibition of growth at 10 µM [25]: 41%
inhibition of growth at 10 µM [26]: 56.5%
inhibition of growth at 10 µM [27]: 58.9%
inhibition of growth at 10 µM [32]: 48.2%
inhibition of growth at 10 µM [28]: 51.5%
inhibition of growth at 10 µM [33]: 69%
inhibition of growth at 10 µM [34]: 58%
